By IC50 is commonly meant the midpoint of a concentration-inhibition curve.

The target of the test is T1, CHK1 kinase (Homo sapiens, UniProt O14757).
T1 construct: glutathione S-transferase (GST); made in house; host or cells: Sf21 insect cells (S. frugiperda), baculovirus
T1 sequence (O14757 1-476): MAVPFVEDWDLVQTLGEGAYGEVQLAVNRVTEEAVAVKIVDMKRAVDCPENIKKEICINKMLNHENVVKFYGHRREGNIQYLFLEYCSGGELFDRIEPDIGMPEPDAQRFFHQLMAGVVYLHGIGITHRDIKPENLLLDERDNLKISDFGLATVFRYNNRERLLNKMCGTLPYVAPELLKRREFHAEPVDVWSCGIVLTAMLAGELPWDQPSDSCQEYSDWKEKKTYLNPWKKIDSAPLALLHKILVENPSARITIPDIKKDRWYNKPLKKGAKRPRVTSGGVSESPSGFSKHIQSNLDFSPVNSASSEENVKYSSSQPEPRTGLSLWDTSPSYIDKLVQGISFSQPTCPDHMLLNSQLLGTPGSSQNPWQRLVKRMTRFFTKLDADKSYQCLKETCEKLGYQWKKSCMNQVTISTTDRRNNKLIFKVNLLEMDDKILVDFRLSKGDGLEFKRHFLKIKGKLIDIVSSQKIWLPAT
Nature of the test: Flashplate method (CHK1), measurement of the CHK1 kinase activity. Format: biochemical. As to conditions: class symbols; 'Affinity to receptors'. Here is the method:
CHK1 kinase is expressed for the purposes of protein production in insect cells (Sf21; S. frugiperda) and subsequent purification by affinity chromatography as fusion protein with glutathione S-transferase in a baculovirus expression vector. The cultivation, infection and digestion of the cells as well as the purification of the fusion protein by column chromatography are carried out in accordance with manufacturer-oriented generic working instructions.
The kinase activity is measured using various available measurement systems. In the scintillation proximity method (Sorg et al., J. of. Biomolecular Screening, 2002, 7, 11-19), the flashplate method or the filter binding test, the radioactive phosphorylation of a protein or peptide as substrate is measured using radioactively labelled ATP (γ^32P-ATP, (γ^33P-ATP). In the case of the presence of an inhibitory compound, a reduced radioactive signal, or none at all, can be detected. Furthermore, homogeneous time-resolved fluorescence resonance energy transfer (HTR-FRET) and fluorescence polarisation (FP) technologies are useful as assay methods (Sills et al., J. of Biomolecular Screening, 2002, 191-214).
The test plates used are 384-well streptavidin-coated Flashplates Plus® from Perkin Elmer (Cat.No. SMP410A001PK). The assay plate is equilibrated with 75 μl of assay buffer per well 30 min before commencement of the experiment. The buffer is sucked out before commencement of the experiment, and the components of the kinase reaction described below are pipetted onto the plate.
CHK1 kinase, a biotinylated substrate peptide (for example CHKtide: […]), is incubated with radioactively labelled ATP in the presence and absence of test substances at 30° Celsius and a total volume of 50 μl. The reaction is terminated using 25 μl of a 0.2 M EDTA solution. After incubation for 30 min at room temperature, the supernatants are filtered off with suction, and the wells are washed three times with 100 μl of 0.9% NaCl solution each time. The measurement of the bound radioactivity is carried out by means of a scintillation measuring instrument (Topcount NXT, Perkin-Elmer).
The full value used is the inhibitor-free kinase reaction. This should be approximately in the range 3000-4000 cpm. The pharmacological zero value used is staurosporin in a final concentration of 0.1 μM. The inhibitory values (IC50) are determined using the program RS1_MTS ( ).
Kinase reaction conditions per well:
0.15 μg of CHKtide ([…])
50 μl total volume (1-fold assay buffer reaction conditions)
Solutions used: • assay buffer:
0.1 mM Titriplex VI (EGTA
10 mM magnesium acetate 0.1% mercaptoethanol
pH=7.5 (to be set using hydrochloric acid) Bovine serum albumin (final concentration 0.1%) is not added until just before use. • stop solution:
0.2 M TitriplexIII (EDTA)
• γ^33P-ATP (Perkin-Elmer) • CHK1 kinase preparations: specific activity>50 U/mg • CHKtide solution: biotinylated peptide substrate (Biotrend) stored as stock solution (concentration 0.15 mg/ml).
`NS(=O)(=O)c1ccc(CNc2c(Nc3ccc4[nH]cnc4c3)c(=O)c2=O)cc1` [Compound A151, 3-(1H-benzimidazol-5-ylamino)-4-(4-amino-sulfonylbenzylamino)cyclobut-3-ene-1,2-dione]: the IC50 is more than 1000 nM.

Regarding `CCN(CC)CCn1cnc2ccc(Nc3c(N[C@H](C)c4cccc(O)c4)c(=O)c3=O)cc21` [Compound A66, 3-[3-(2-diethylaminoethyl)-3H-benzimidazol-5-ylamino]-4-[(R)-1-(3-hydroxyphenyl)ethyl-amino]cyclobut-3-ene-1,2-dione], the IC50 is more than 1000 nM.

Take `NC(=O)c1c[nH]c2ccc(Nc3c(NCc4cccc(O)c4)c(=O)c3=O)cc12` [Compound A32, 3-(3-aminocarbonyl-1H-indol-5-ylamino)-4-(3-hydroxybenzylamino)cyclobut-3-ene-1,2-dione]: the half-maximal inhibitory concentration (IC50) is more than 1000 nM.

As for `O=c1c(NCc2cccc(O)c2)c(Nc2ccc3[nH]c(C(F)(F)F)nc3c2)c1=O` [Compound A10, 3-(1H-benzimidazol-2-trifluoromethyl-5-yl-amino)-4-(3-hydroxybenzylamino)cyclobut-3-ene-1,2-dione], the IC50 is more than 1000 nM.

“3-[(R)-1-(3-methoxyphenyl)ethylamino]-4-(8-methylimidazo[1,2-a]pyridin-6-ylamino)-cyclobut-3-ene-1,2-dione [Compound A59]” gave an IC50 of more than 1000 nM.

Take `O=c1c(NCc2cccc(F)c2)c(Nc2ccc3[nH]cnc3c2)c1=O` [Compound A31, 3-(1H-benzimidazol-5-ylamino)-4-(3-fluoro-benzylamino)cyclobut-3-ene-1,2-dione]: the IC50 is more than 1000 nM.

`O=c1c(NCCc2ccc(O)cc2)c(Nc2ccc3[nH]cnc3c2)c1=O` [Compound A140, 3-(1H-benzimidazol-5-ylamino)-4-[2-(4-hydroxyphenyl)ethylamino]cyclobut-3-ene-1,2-dione] displayed an IC50 of more than 1000 nM.

For `O=c1c(NCc2cccc(B(O)O)c2)c(Nc2ccc3[nH]cnc3c2)c1=O` [Compound A125, 3-{[2-(1H-benzimidazol-5-ylamino)-3,4-dioxo-cyclobut-1-enylamino]methyl}phenylboronic acid], the IC50 was more than 1000 nM.

With `CCOc1ccc(O)cc1CNc1c(Nc2ccc3[nH]cnc3c2)c(=O)c1=O` [Compound A93, 3-(1H-benzimidazol-5-ylamino)-4-(2-ethoxy-5-hydroxybenzylamino)cyclobut-3-ene-1,2-dione], the 50% inhibitory concentration (IC50) is more than 1000 nM.

Turning to `O=c1c(NCc2cccc(O)c2F)c(Nc2ccc3[nH]cnc3c2)c1=O` [Compound A103, 3-(1H-benzimidazol-5-ylamino)-4-(2-fluoro-3-hydroxybenzylamino)cyclobut-3-ene-1,2-dione], the half-maximal inhibitory concentration (IC50) was more than 1000 nM.

On to `CC(Nc1c(Nc2ccc3[nH]cnc3c2)c(=O)c1=O)c1ccc2[nH]ccc2c1` (stereo not shown) [Compound A75, 3-(1H-benzimidazol-5-ylamino)-4-[1-(1H-indol-5-yl)ethylamino]cyclobut-3-ene-1,2-dione], for which the IC50 was more than 1000 nM.

`O=c1c(NCc2ccccc2OC2CCNCC2)c(Nc2ccc3[nH]cnc3c2)c1=O` [Compound A148, 3-(1H-benzimidazol-5-ylamino)-4-[2-(piperidin-4-yloxy)benzylamino]cyclobut-3-ene-1,2-dione] yielded an IC50 of more than 1000 nM.

In turn, `O=c1c(NCc2cccc(O)c2)c(Nc2ccc3[nH]cnc3c2)c1=O` [Compound A1, 3-(1H-benzimidazol-5-ylamino)-4-(3-hydroxybenzylamino)cyclobut-3-ene-1,2-dione] registered a concentration for half-maximal inhibition (IC50) of less than 100 nM.

With `Cc1nc2cc(Nc3c(NCc4cccc(O)c4)c(=O)c3=O)ccc2[nH]1` [Compound A89, 3-(3-hydroxybenzylamino)-4-(2-methyl-1H-benzimidazol-5-ylamino)cyclobut-3-ene-1,2-dione], the 50% inhibitory concentration (IC50) is more than 1000 nM.

`Cc1nc2cc(Nc3c(NCc4cccc(O)c4)c(=O)c3=O)ccc2s1` [Compound A98, 3-(3-hydroxybenzylamino)-4-(2-methylbenzo-thiazol-5-ylamino)cyclobut-3-ene-1,2-dione] registered an IC50 of more than 1000 nM.

In the case of `COc1cccc([C@@H](C)Nc2c(Nc3ccc4[nH]cnc4c3)c(=O)c2=O)c1` [Compound A2, 3-(1H-benzimidazol-5-ylamino)-4-[(R)-1-(3-methoxyphenyl)ethylamino]cyclobut-3-ene-1,2-dione], the IC50 was less than 1000 nM.

The compound `O=c1c(NCc2cccc(O)c2)c(Nc2ccc3[nH]ccc3c2)c1=O` [Compound A29, 3-(1H-indol-5-ylamino)-4-(3-hydroxybenzyl-amino)cyclobut-3-ene-1,2-dione] showed a 50% inhibitory concentration (IC50) of more than 1000 nM.

Compound `O=c1c(NCCc2ccccc2O)c(Nc2ccc3[nH]cnc3c2)c1=O` [Compound A149, 3-(1H-benzimidazol-5-ylamino)-4-[2-(2-hydroxyphenyl)ethylamino]cyclobut-3-ene-1,2-dione] showed an IC50 of more than 1000 nM.

Regarding `O=c1[nH]c2ccc(CNc3c(Nc4ccc5[nH]cnc5c4)c(=O)c3=O)cc2[nH]1` [Compound A80, 3-(1H-benzimidazol-5-ylamino)-4-[(2-oxo-2,3-dihydro-1H-benzimidazol-5-ylmethyl)amino]-cyclobut-3-ene-1,2-dione], the IC50 was more than 1000 nM.

Consider `O=c1c(NCc2cccc(-n3cccc3)c2)c(Nc2ccc3[nH]cnc3c2)c1=O` [Compound A35, 3-(1H-benzimidazol-5-ylamino)-4-(3-pyrrol-1-ylbenzylamino)cyclobut-3-ene-1,2-dione], for which the half-maximal inhibitory concentration (IC50) is more than 1000 nM.

In the case of “3-[(R)-1-(3-methoxyphenyl)ethylamino]-4-(5-methylimidazo[1,2-a]pyridin-6-ylamino)-cyclobut-3-ene-1,2-dione [Compound A58]”, the IC50 is more than 1000 nM.

“3-[(R)-1-(3-methoxyphenyl)ethylamino]-4-(7-methylimidazo[1,2-a]pyridin-6-ylamino)-cyclobut-3-ene-1,2-dione [Compound A57]”: the IC50 is more than 1000 nM.

On to `CS(=O)(=O)Nc1cccc(CNc2c(Nc3ccc4[nH]cnc4c3)c(=O)c2=O)c1` [Compound A77, 3-(1H-benzimidazol-5-ylamino)-4-(3-methyl-sulfonylaminobenzylamino)cyclobut-3-ene-1,2-dione], for which the IC50 is more than 1000 nM.

With `COCCn1cnc2ccc(Nc3c(NCc4cccc(-c5nnn[nH]5)c4)c(=O)c3=O)cc21` [Compound A69, 3-[3-(2-methoxyethyl)-3H-benzimidazol-5-ylamino]-4-[3-(1H-tetrazol-5-yl)benzylamino]-cyclobut-3-ene-1,2-dione], the IC50 was more than 1000 nM.

Take `COc1ccccc1CCNc1c(Nc2ccc3[nH]cnc3c2)c(=O)c1=O` [Compound A143, 3-(1H-benzimidazol-5-ylamino)-4-[2-(2-methoxyphenyl)ethylamino]cyclobut-3-ene-1,2-dione]: the IC50 was more than 1000 nM.

Regarding “3-(8-bromoimidazo[1,2-a]pyridin-6-ylamino)-4-(3-hydroxybenzylamino)cyclobut-3-ene-1,2-dione [Compound A60]”, the IC50 is less than 1000 nM.

Consider `O=c1c(NCc2cccc(OS(=O)(=O)C(F)(F)F)c2)c(Nc2ccc3[nH]cnc3c2)c1=O` [Compound A133, 3-(1H-benzimidazol-5-ylamino)-4-(3-trifluoro-methylsulfonyloxybenzylamino)cyclobut-3-ene-1,2-dione], for which the half-maximal inhibitory concentration (IC50) is more than 1000 nM.

In turn, `O=C(CC(Nc1c(Nc2ccc3[nH]cnc3c2)c(=O)c1=O)c1cccc(O)c1)N1CCNCC1` (stereo not shown) [Compound A112, 3-(1H-benzimidazol-5-ylamino)-4-[1-(3-hydroxyphenyl)-3-oxo-3-piperazin-1-ylpropyl-amino]cyclobut-3-ene-1,2-dione] registered an IC50 of less than 1000 nM.

(Values after patent US20080234266A1, “Squaric Acid Derivatives II” (priority 2005, published 2008).)
